Laboratory results taken from ChEMBL document CHEMBL4418482, “2-hydroxyarylamide derivative or pharmaceutically acceptable salt thereof, preparation method thereof, and pharmaceutical composition for preventing or treating cancer containing same as active ingredient” (2014).
The source made the active and inactive calls. No cut-off for these calls is given here.

What was measured:
[1] = target: Transmembrane protease serine 4 (Homo sapiens) (UniProt Q9NRS4); test: Inhibition of TMPRSS4 serine protease domain (Val205 to Leu437 residues) (unknown origin) expressed in Escherichia coli BL21 (DE3) at 30 uM using Z-Phe-Arg7-amido-4-methylcoumarin hydrochloride substrate measured at 5 mins interval for 150 mins by fluorescence based assay relative to control
Sequence of Transmembrane protease serine 4 (Homo sapiens) (Q9NRS4 whole entry, the tested form may be a part): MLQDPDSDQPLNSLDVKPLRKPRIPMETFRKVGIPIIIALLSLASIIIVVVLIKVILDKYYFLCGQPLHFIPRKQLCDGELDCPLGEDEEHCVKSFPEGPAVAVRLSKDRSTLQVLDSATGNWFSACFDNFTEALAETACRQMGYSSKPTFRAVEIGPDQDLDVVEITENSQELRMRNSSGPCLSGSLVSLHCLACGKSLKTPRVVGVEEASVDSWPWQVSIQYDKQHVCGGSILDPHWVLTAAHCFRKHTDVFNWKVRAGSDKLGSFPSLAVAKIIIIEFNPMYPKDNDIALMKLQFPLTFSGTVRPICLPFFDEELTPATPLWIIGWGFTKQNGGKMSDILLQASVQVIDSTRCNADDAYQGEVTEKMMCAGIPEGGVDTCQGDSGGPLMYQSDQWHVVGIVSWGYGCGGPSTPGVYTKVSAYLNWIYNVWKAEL

[2] = target: Transmembrane protease serine 4 (Homo sapiens) (UniProt Q9NRS4); test: Inhibition of TMPRSS4 serine protease domain (Val205 to Leu437 residues) (unknown origin) expressed in Escherichia coli BL21 (DE3) at 10 uM using Z-Phe-Arg7-amido-4-methylcoumarin hydrochloride substrate measured at 5 mins interval for 150 mins by fluorescence based assay relative to control
[3] = target: Transmembrane protease serine 4 (Homo sapiens) (UniProt Q9NRS4); test: Inhibition of TMPRSS4 serine protease domain (Val205 to Leu437 residues) (unknown origin) expressed in Escherichia coli BL21 (DE3) at 100 uM using Z-Phe-Arg7-amido-4-methylcoumarin hydrochloride substrate measured at 5 mins interval for 150 mins by fluorescence based assay relative to control
[4] = target: Transmembrane protease serine 4 (Homo sapiens) (UniProt Q9NRS4); test: Inhibition of TMPRSS4 serine protease domain (Val205 to Leu437 residues) (unknown origin) expressed in Escherichia coli BL21 (DE3) at 1 mM using Boc-Gln-Ala-Arg-7-amido-4-methylcoumarin hydrochloride substrate measured at 5 mins intervals

Structure (SMILES)	inhibition [1]	inhibition [2]	inhibition [3]	inhibition [4]
O=C(Nc1cc(C(F)(F)F)cc(C(F)(F)F)c1Cl)c1cc(-c2ccc(F)cc2F)ccc1O	31%	5%		
Cc1c(NC(=O)c2cc(Cl)ccc2O)cccc1C(F)(F)F	77%			
O=C(Nc1ccc(C(F)(F)F)c(Br)c1)c1cc(Cl)ccc1O	46%	30%	98%	
NCCc1ccc(S(=O)(=O)F)cc1				Active
